Values after ≈ are worked out from the molar mass of the structure shown. Like-named read-outs stand apart in the source and are kept apart here.
Columns and labels:
[1] = tested on: non-replicating M. tuberculosis; test: microbe, parasite or virus in culture; format: cell-based, Mycobacterium tuberculosis; settings: Table 8, ranges from multiple assays; for MIC: Mycobacterium tuberculosis
HepG2 cells = format: cell-based
Description: Three lead compounds were identified in the first round of high throughput screening (700 compounds), which had minimal inhibitory concentrations (MIC) of 0.4-0.8 μg/mL after a six day exposure to drug (NRd6) in the model of non-replication at pH 5.0, and LD50's of 100 to >100 μg/mL against HepG2 cells (a 2 day exposure).
Furthermore, LD50 values were determined using a human hepatoma cell line (HepG2) using intracellular ATP levels as a measurement that correlated with cellular viability.

[2] = read-out: MIC NR at 0.01 Inoc. and 3 Day Exposure to Drug, 7 Day Outgrowth
[3] = read-out: MIC NR at 0.01 Inoc. and 3 Day Exposure to Drug, 11 Day Outgrowth

Row | SMILES | MIC NR at 0.01 Inoc. and 3 Day Exposure to Drug, 7 Day Outgrowth [1] [µg/mL] | MIC NR at 0.01 Inoc. and 3 Day Exposure to Drug, 11 Day Outgrowth [1] [µg/mL] | HepG2 Toxicity LD50 (HepG2 cells; Table 8) [µg/mL] | MIC [1, 2] [µg/mL] | MIC [1, 3] [µg/mL] | HepG2 Toxicity LD50 (HepG2 cells; human, 2 day) [µg/mL]
1 | C#CCCC(=O)N[C@@H]1C(=O)N2C(C(=O)OCCC)=C(C)CS[C@H]12 [Compound 34] | 1.56 (≈ 4.64 µM) | 3.13 (≈ 9.3 µM) | >100 | – | – | –
2 | CCOC(=O)C1=C(C)CS[C@@H]2[C@H](NC(=O)COc3ccccc3)C(=O)N12 [Compound 40] | 0.39 (≈ 1.04 µM) | 0.78 (≈ 2.07 µM) | >100 | – | – | –
3 | CCCOC(=O)C1=C(C)CS[C@@H]2[C@H](NC(=O)COc3ccc(OC)cc3)C(=O)N12 [Compound 42] | 0.20 (≈ 0.476 µM) | 0.39 (≈ 0.927 µM) | >100 | – | – | –
4 | CCOC(=O)C1=C(C)CS[C@@H]2[C@H](NC(=O)COc3ccc(OC)cc3)C(=O)N12 [Compound 43] | 0.39 (≈ 0.96 µM) | 1.56 (≈ 3.84 µM) | >100 | – | – | –
5 | CCCOC(=O)C1=C(C)CS[C@@H]2[C@H](NC(=O)COc3ccc(Cl)cc3)C(=O)N12 [Compound 45] | 0.39 (≈ 0.918 µM) | 0.39 (≈ 0.918 µM) | 100 | – | – | –
6 | CCOC(=O)C1=C(C)CS[C@@H]2[C@H](NC(=O)COc3ccc(Cl)cc3)C(=O)N12 [Compound 46] | 0.39 (≈ 0.949 µM) | 078 (≈ 190 µM) | 50 | – | – | –
7 | CCCOC(=O)C1=C(C)CS[C@@H]2[C@H](NC(=O)CCc3ccccc3)C(=O)N12 [Compound 48] | 0.10 (≈ 0.257 µM) | 0.20 (≈ 0.515 µM) | >100 | – | – | –
8 | CCOC(=O)C1=C(C)CS[C@@H]2[C@H](NC(=O)CCc3ccccc3)C(=O)N12 [Compound 49] | 0.20 (≈ 0.534 µM) | 0.39 (≈ 1.04 µM) | >100 | – | – | –
9 | CCCOC(=O)C1=C(C)CS[C@@H]2[C@H](NC(=O)CCc3ccc(OC)cc3)C(=O)N12 [Compound 51] | 0.10 (≈ 0.239 µM) | 0.10 (≈ 0.239 µM) | – | – | – | –
10 | CCOC(=O)C1=C(C)CS[C@@H]2[C@H](NC(=O)CCc3ccc(OC)cc3)C(=O)N12 [Compound 52] | 0.20 (≈ 0.494 µM) | 0.39 (≈ 0.964 µM) | >100 | – | – | –
11 | CCCOC(=O)C1=C(C)CS[C@@H]2[C@H](NC(=O)CCc3ccc(Cl)cc3)C(=O)N12 [Compound 54] | 0.20 (≈ 0.473 µM) | 0.39 (≈ 0.922 µM) | >100 | – | – | –
12 | CCOC(=O)C1=C(C)CS[C@@H]2[C@H](NC(=O)CCc3ccc(Cl)cc3)C(=O)N12 [Compound 55] | 0.20 (≈ 0.489 µM) | 0.39 (≈ 0.954 µM) | >100 | – | – | –
13 | C#CCOC(=O)C1=C(C)CS[C@@H]2[C@H](NC(=O)COc3ccccc3)C(=O)N12 [Compound 82] | 1.56 (≈ 4.04 µM) | 3.13 (≈ 8.1 µM) | >100 | – | – | –
14 | C#CCOC(=O)C1=C(C)CS[C@@H]2[C@H](NC(=O)COc3ccc(OC)cc3)C(=O)N12 [Compound 85] | 0.78 (≈ 1.87 µM) | 1.56 (≈ 3.75 µM) | >100 | – | – | –
15 | C#CCOC(=O)C1=C(C)CS[C@@H]2[C@H](NC(=O)COc3ccc(Cl)cc3)C(=O)N12 [Compound 88] | 0.78 (≈ 1.85 µM) | 1.56 (≈ 3.71 µM) | 100 | – | – | –
16 | C#CCOC(=O)C1=C(C)CS[C@@H]2[C@H](NC(=O)CCc3ccccc3)C(=O)N12 [Compound 91] | 0.78 (≈ 2.03 µM) | 1.56 (≈ 4.06 µM) | >100 | – | – | –
17 | C#CCOC(=O)C1=C(C)CS[C@@H]2[C@H](NC(=O)CCc3ccc(OC)cc3)C(=O)N12 [Compound 94] | 0.78 (≈ 1.88 µM) | 1.56 (≈ 3.76 µM) | >100 | – | – | –
18 | C#CCOC(=O)C1=C(C)CS[C@@H]2[C@H](NC(=O)CCc3ccc(Cl)cc3)C(=O)N12 [Compound 97] | 0.39 (≈ 0.931 µM) | 0.78 (≈ 1.86 µM) | 100 | – | – | –
19 | CCCCOC(=O)C1C(C)=CS[C@@H]2[C@H](NC(=O)COc3ccccc3)C(=O)N12 (some centres unmarked) [Compound 98] | – | – | – | 0.39 (≈ 0.964 µM) | 0.39 (≈ 0.964 µM) | 100
20 | CCCOC(=O)C1=C(C)CS[C@@H]2[C@H](NC(=O)CCc3ccc(OC)cc3)C(=O)N12 [Compound 99] | – | – | – | 0.1 (≈ 0.239 µM) | 0.2 (≈ 0.478 µM) | >100
